Reference: patent US7208314B2, “Compositions and methods for drug delivery using pH sensitive molecules” (priority 2002, dated 2007)
Ends that are not written are not given here.

Legend:
[1] = tested on: cells; format: cell-based; settings: for Relative Light Units (luciferase expression): pCIluc DNA/poly-L-lysine complex plus 40 μg modified lipid, 48 h; for Relative Light Units relative to poly-L-lysine (no lipid): value in parentheses
[2] = Hemolysis assay: melittin or KL3 blocked by anionic polymer or dimethylmaleic anhydride; format: cell-based; settings: pH 7.5; 30 minutes, 37 C; read-out: Percent hemolysis
Protocol: The membrane-disruptive activity of the peptide melittin and subsequent blocking of activity by anionic polymers was measured using a red blood cell (RBC) hemolysis assay. RBCs were harvested by centrifuging whole blood for 4 min. They were washed three times with 100 mM dibasic sodium phosphate at the desired pH, and resuspended in the same buffer to yield the initial volume. They were diluted 10 times in the same buffer, and 200 uL of this suspension was used for each tube. This yields 10 ? 8 RBCs per tube. Each tube contained 800 uL of buffer, 200 uL of the RBC suspension, and the peptide with or without polymer. Each sample was then repeated to verify reproducibility. The tubes were incubated for 30 minutes in a 37 C water bath. They were spun for 5 min at full speed in the microcentifuge. Lysis was determined by measuring the absorbance of the supernatant at 541 nm, reflecting the amount of hemoglobin that had been released into the supernatant. Percent hemolysis was calculated assuming 100% lysis to be measured by the hemoglobin released by the red blood cells in water; controls of RBCs in buffer with no peptide were also run.

[3] = tested on: 3T3 mouse embryonic fibroblast cells; test: In vitro transfection with DNA-PLL-KL3 and dimethylmaleamic KL3, luciferase expression; format: cell-based
Protocol: To a complex of plasmid DNA pCIluc (10 μg/mL, 0.075 mM in phosphate, 2.6 μg/μL pCIluc; prepared according to Danko, I., Williams, P., Herweijer, H. Zhang, G., Latendresse, J. S., Bock, I., Wolff, J. A. Hum. Mol. Genetics 1997, 6, 1435.) and poly-L-lysine (40 μg/mL) in 0.5 mL of 5 mM HEPES pH 7.5 was added succinylated poly-L-lysine (34,000 MW, Aldrich Chemical), 2,3-dimethylmaleamic melittin and 2,3-dimethylmaleamic KL3. The DNA-poly-L-lysine-2,3-dimethylmaleamic peptide complexes were then added (200 μL) to wells containing 3T3 mouse embryonic fibroblast cells in 290 mM glucose and 5 mM HEPES buffer pH 7.5. After 1.5 h, the glucose media was replaced with Dubelco's modified Eagle Media and the cells were allowed to incubate for 48 h. The cells were then harvested and then assayed for luciferase expression as previously reported (Wolff, J. A., Malone, R. W., Williams, P., Chong, W., Acsadi, G., Jani, A. and Felgner, P. L. Direct gene transfer into mouse muscle in vivo. Science, 1465–1468, 1990.). A Lumat LB 9507 (EG&G Berthold, Bad-Wildbad, Germany) luminometer was used. The amount of transfection was reported in relative light units and is the average transfection for two separate wells of cells.

[4] = tested on: red blood cells; test: Blood lysis experiment on melittin conjugated to microspheres via ketal; format: cell-based
Protocol: The microspheres were taken up in H2O (500 μL) and partitioned into five 100 μL samples. Four of the samples were diluted to 1000 μL with sodium phosphate buffer (100 mM) at pH 7.5, 6.0, 5.5, and 5.0. Samples were held at 37° C., spun down, and 150 μL aliquots taken at 30 min, 60 min, 90 min, and 16 hrs. A portion of each sample (100 μL) was diluted with sodium phosphate buffer (400 μL, pH 7.5) and added to red blood cells (100 μL, pH 7.5). Red blood cell lysis was measured after 10 min by measuring the absorbance at 541 nm. A control sample was also measured in which 100% of the red blood cells had been lysed with melittin alone.
The fifth 100 μL sample was further divided into 25 μL samples, three of which were diluted to 250 μL with sodium phosphate buffer (100 mM) at pH 7.5, 6.0, and 5.0. The samples were held at 37° C. for 30 min, spun down and the supernatant removed, and resuspended in 2.5 M NaCl solution (50 μL) and mixed. After 10 min the microspheres were spun down and the supernatant removed. The samples were added to red blood cells (500 μL, 100 mM) and the absorbance was measured at 541 nm.

[5] = tested on: HELA cells; test: Endosome disruption assay (FITC-dextran, propidium iodide); format: cell-based; settings: 50 μg
Protocol: HeLa cells were plated in 6-well tissue culture dishes containing microscope slide coverslips and grown in Delbecco's Modified Eagle's Medium (DMEM)+10% fetal calf serum+penn/strep for 24–48 hours until 30–60% confluent. […] After 25 min, media containing FITC-dextran±melittin was removed, the cells were washed twice with 1 ml 37° C. DMEM lacking FITC-dextran and melittin, and cells were incubated for an additional 35 min at 37° C. in 1 ml fresh DMEM. In order to assess possible cell lysis caused by melittin, propidium iodide was added for the final 5 min of incubation. […] However, if the plasma membrane has been damaged, propidium iodide enters the cell where it will brightly stain the nucleus. To process slides for analysis, cells were washed 3 times with cold phosphate buffered saline (PBS), fixed in PBS+4% formaldehyde for 20–30 min at 4° C., and washed again 3 times with cold PBS. Excess liquid was drained from coverslips which were then mounted onto glass slides. Fluorescence was then analyzed on a Zeiss LSM510 confocal microscope. FITC was excited by a 488 nm argon laser and fluorescence emission was detected by a long pass 505 nm filter. […] For cells incubated with unmodified melittin near 100% cell death was observed as determined by propidium iodide staining of nuclei and loss of cells from the sample.

[6] = 15 mM sodium acetate pH 5 buffer
Protocol: The absorbance of the solution at 225 nm, which is the wavelength at which enol ethers absorb (Kresge, A. J.; Sagatys, D. S.; Chen, H. L. J. Am. Chem. Soc. 1977, 99, 7228) was measured over time.
The absorbance of the solution at 225 nm was measured as a function of time.

[7] = Kinetics of conversion of dimethylmaleamic modified amines to amines at pH 5 (trinitrobenzenesulfonate); format: physicochemical
Protocol: Dimethyl maleamic modified poly-L-lysine (10 mg/mL) was incubated in 10 mM sodium acetate buffer pH 5. At various times, aliquots (10 μg) were removed and added to 0.5 mL of 100 mM borax solution containing 0.4 mM trinitrobenzenesulfonate. A half an hour later, the absorbance of the solution at 420 nm was measured. To determine the concentration of amines at each time point, the extinction coefficient was determine for the product of trinitrobenzenesulfonate and poly-L-lysine. Using this extinction coefficient we were able to calculate the amount of amines and maleamic groups at each time point. A plot of ln (At/A0) as a function of time was a straight line whose slope is the negative of the rate constant for the conversion of maleamic acid to amine and anhydride, where At is the concentration of maleamic acid at a time t and A0 is the initial concentration of maleamic acid. For two separate experiments we calculated rate constants of […] which correspond to half lives of roughly 10 and 4 minutes respectively.
Dimethyl maleamic modified KL3 (0.1 mg/mL) was incubated in 40 mM sodium acetate buffer pH 5 and 1 mM cetyltrimetylammonium bromide. At various times, aliquots (10 μg) were removed and added to 0.05 mL of 1 M borax solution containing 4 mM trinitrobenzenesulfonate. A half an hour later, the absorbance of the solution at 420 nm was measured. […]

Compound: CCCCCCCC/C=C\CCCCCCCC(=O)OC[C@H](COP(=O)(O)OCCNC(=O)/C(C)=C(/C)C(=O)O)OC(=O)CCCCCCC/C=C\CCCCCCCC [2,3-dimethylmaleamic-modified DOPE]
- Relative Light Units (luciferase expression) [1]: 243359 Relative Light Units
- Relative Light Units relative to poly-L-lysine (no lipid) [1]: 40

Compound: KLLKLLLKLWLKLLKLLLKLL [KL3]
- hemolysis [2]: 86%
- Relative Light Units (luciferase expression) ([3]; pCIluc DNA/poly-L-lysine complex plus named additive, 48 h, average of two wells): 261 Relative Light Units
- Relative Light Units relative to Succinylated poly-L-lysine ([3]; value in parentheses): 0.04

Compound: CC[C@H](C)[C@H](NC(=O)CN)C(=O)NCC(=O)N[C@@H](C)C(=O)N[C@H](C(=O)N[C@@H](CC(C)C)C(=O)N[C@@H](CCCCN)C(=O)N[C@H](C(=O)N[C@@H](CC(C)C)C(=O)N[C@H](C(=O)N[C@H](C(=O)NCC(=O)N[C@@H](CC(C)C)C(=O)N1CCC[C@H]1C(=O)N[C@@H](C)C(=O)N[C@@H](CC(C)C)C(=O)N[C@H](C(=O)N[C@@H](CO)C(=O)N[C@@H](Cc1c[nH]c2ccccc12)C(=O)N[C@H](C(=O)N[C@@H](CCCCN)C(=O)N[C@@H](CCCNC(=N)N)C(=O)N[C@@H](CCCCN)C(=O)N[C@@H](CCCNC(=N)N)C(=O)N[C@@H](CCC(N)=O)C(=O)N[C@@H](CCC(N)=O)C(N)=O)[C@@H](C)CC)[C@@H](C)CC)[C@@H](C)O)[C@@H](C)O)C(C)C)C(C)C [Melittin, reference compound]
- A541 (red blood cell lysis) ([4]; control, 100% lysis with melittin alone): 1.881
- cell death (propidium iodide staining of nuclei and loss of cells) [5]: ~100%

Compound: glycolic acid ethoxylate(4 units) 4-tert-buty-1,4-cyclohexadiene ether
- rate constant of enol ether hydrolysis [6]: 0.0159 min⁻¹

Compound: Melittin Conjugated to Microspheres: melittin attached to carboxylic acid modified microspheres via Di-(2-methyl-4-hydroxymethyl-1,3-dioxolane)-1,4-benzene ketal
- A541 (red blood cell lysis) ([4]; 30 min pH 5.0, 37° C.): 0.659
- A541 (red blood cell lysis) ([4]; 30 min pH 5.5, 37° C.): 0.609
- A541 (red blood cell lysis) ([4]; 30 min pH 6.0, 37° C.): 0.326
- A541 (red blood cell lysis) ([4]; 30 min pH 7.5, 37° C.): 0.026
- A541 (red blood cell lysis) ([4]; 60 min pH 5.0, 37° C.): 0.730
- A541 (red blood cell lysis) ([4]; 60 min pH 5.5, 37° C.): 0.526
- A541 (red blood cell lysis) ([4]; 60 min pH 6.0, 37° C.): 0.212
- A541 (red blood cell lysis) ([4]; 60 min pH 7.5, 37° C.): 0.027
- A541 (red blood cell lysis) ([4]; 90 min pH 5.0, 37° C.): 0.892
- A541 (red blood cell lysis) ([4]; 90 min pH 5.5, 37° C.): 0.640
- A541 (red blood cell lysis) ([4]; 90 min pH 6.0, 37° C.): 0.390
- A541 (red blood cell lysis) ([4]; 90 min pH 7.5, 37° C.): 0.036
- A541 (red blood cell lysis) ([4]; 16 hrs pH 5.0, 37° C.): 1.163
- A541 (red blood cell lysis) ([4]; 16 hrs pH 5.5, 37° C.): 0.796
- A541 (red blood cell lysis) ([4]; 16 hrs pH 6.0, 37° C.): 0.354
- A541 (red blood cell lysis) ([4]; 16 hrs pH 7.5, 37° C.): 0.065
- time of rapid release of modified peptide ([4]; all acidic pH levels tested): < 30 min
- release of modified peptide from the microsphere ([4]; pH 7.5): not released
- A541 (red blood cell lysis) ([4]; second experiment, 30 min pH 5.0 supernatant): 0.685
- A541 (red blood cell lysis) ([4]; second experiment, 30 min pH 6.0 supernatant): 0.213
- A541 (red blood cell lysis) ([4]; second experiment, 30 min pH 7.5 supernatant): 0.053
- A541 (red blood cell lysis) ([4]; second experiment, pH 5.0, 2.5 M NaCl wash): 0.101
- A541 (red blood cell lysis) ([4]; second experiment, pH 6.0, 2.5 M NaCl wash): 0.162
- A541 (red blood cell lysis) ([4]; second experiment, pH 7.5, 2.5 M NaCl wash): 0.087

Compound: C/C(C(N)=O)=C(\CCC(=O)O)C(=O)O [2-propionic-3-methylmaleamic acid]
- rate of maleamic acid cleavage compared [7]: the same as that for 2,3-dimethylmaleamic acids

Compound: CCCCCCCC/C=C\CCCCCCCC(=O)OCC(COC(=O)/C(C)=C(/C)C(=O)O)OC(=O)CCCCCCC/C=C\CCCCCCCC (centres unmarked) [2,3-dimethylmaleamic-modified DOG]
- Relative Light Units (luciferase expression) [1]: 193624 Relative Light Units
- Relative Light Units relative to poly-L-lysine (no lipid) [1]: 32
